Test results from ChEMBL document CHEMBL1201862, “PubChem BioAssay data set” (2004).
Active and inactive are the calls of the source.

Tests used:
[1] = target: Glyceraldehyde-3-phosphate dehydrogenase (Homo sapiens, UniProt P04406)
Protein RecA = target: T1, Protein RecA (Mycobacterium tuberculosis, UniProt P9WHJ3); experiment: Fluorescence Cell-Free Homogeneous Dose Retest to Identify Inhibitors of RecA-Intein Splicing Activity. [Related pubchem assays (depositor defined):AID2097, AID2223, AID489010, AID492950]; format: functional
T1 sequence (P9WHJ3 whole entry): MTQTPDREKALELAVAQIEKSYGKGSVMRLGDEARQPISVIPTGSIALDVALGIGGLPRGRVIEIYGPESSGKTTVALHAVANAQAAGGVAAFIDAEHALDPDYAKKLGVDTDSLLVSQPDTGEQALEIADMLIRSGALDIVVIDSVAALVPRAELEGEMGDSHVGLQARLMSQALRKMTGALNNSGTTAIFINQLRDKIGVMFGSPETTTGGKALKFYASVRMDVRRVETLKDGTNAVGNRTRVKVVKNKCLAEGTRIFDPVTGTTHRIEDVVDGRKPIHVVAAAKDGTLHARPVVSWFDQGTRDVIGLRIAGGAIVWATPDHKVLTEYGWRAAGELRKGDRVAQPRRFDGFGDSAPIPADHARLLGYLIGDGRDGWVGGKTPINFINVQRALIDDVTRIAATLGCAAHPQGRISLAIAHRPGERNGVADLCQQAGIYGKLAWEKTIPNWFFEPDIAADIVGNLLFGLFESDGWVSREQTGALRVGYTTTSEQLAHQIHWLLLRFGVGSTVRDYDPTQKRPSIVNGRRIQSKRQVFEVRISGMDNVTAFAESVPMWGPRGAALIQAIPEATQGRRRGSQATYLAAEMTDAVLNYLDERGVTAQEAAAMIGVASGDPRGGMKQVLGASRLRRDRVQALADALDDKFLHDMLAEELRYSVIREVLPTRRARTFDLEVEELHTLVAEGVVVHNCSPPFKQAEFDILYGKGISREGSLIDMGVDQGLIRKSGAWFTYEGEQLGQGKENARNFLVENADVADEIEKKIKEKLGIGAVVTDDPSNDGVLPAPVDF

[2] = target: T2, Replicative DNA helicase DnaB (Mycobacterium tuberculosis, UniProt P9WMR3); experiment: DnaB intein splicing inhibitors, dose response, biochemical, cell-free fluorescence (AID 449749); format: functional
T2 sequence (P9WMR3 whole entry): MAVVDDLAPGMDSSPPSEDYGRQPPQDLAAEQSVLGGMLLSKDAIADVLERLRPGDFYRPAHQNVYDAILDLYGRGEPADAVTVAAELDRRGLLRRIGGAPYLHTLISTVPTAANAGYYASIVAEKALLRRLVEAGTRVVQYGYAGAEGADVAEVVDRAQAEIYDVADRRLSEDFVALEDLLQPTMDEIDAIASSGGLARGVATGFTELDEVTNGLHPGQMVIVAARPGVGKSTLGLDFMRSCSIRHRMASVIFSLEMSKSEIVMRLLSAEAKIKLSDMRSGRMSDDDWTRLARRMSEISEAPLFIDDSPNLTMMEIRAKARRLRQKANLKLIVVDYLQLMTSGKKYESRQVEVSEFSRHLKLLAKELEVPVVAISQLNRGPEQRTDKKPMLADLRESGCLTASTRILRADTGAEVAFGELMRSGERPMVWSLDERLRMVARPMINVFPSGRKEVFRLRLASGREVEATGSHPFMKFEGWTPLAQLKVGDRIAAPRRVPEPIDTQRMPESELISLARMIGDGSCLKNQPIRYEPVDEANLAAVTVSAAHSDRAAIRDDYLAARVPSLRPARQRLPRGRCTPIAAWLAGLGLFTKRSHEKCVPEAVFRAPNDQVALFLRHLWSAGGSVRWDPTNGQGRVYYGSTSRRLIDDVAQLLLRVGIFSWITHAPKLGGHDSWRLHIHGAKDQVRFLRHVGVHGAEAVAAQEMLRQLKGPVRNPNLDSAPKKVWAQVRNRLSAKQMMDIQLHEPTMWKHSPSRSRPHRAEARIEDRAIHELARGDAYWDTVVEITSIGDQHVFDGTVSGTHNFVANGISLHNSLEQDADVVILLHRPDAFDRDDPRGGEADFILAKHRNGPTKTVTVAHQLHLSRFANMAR

[3] = growth suppression of beta-catenin-knockout colon cells, dose response, cell-based, HCT116, human colon tumor (AID 1045); format: functional;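 note: HCT116 colon tumor cells with beta catenin knocked out; cells exposed to compound for 60 hours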
[4] = growth suppression of PTEN-null colon cells, dose response, cell-based, HCT116 PTEN knockout (AID 1047); format: functional;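 note: HCT116 colon tumor cells with PTEN knocked out; cells exposed to compound for 60 hours before readout; potency for loss of cell viability measured by luminescence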
[5] = target: FAD-linked sulfhydryl oxidase ALR (Homo sapiens, UniProt P55789); experiment: inhibitors of human ALR sulfhydryl oxidase, dose response, biochemical, H2O2 detection, luminescence, cherry-pick (AID 493248)
Sequence of FAD-linked sulfhydryl oxidase ALR (P55789 whole entry): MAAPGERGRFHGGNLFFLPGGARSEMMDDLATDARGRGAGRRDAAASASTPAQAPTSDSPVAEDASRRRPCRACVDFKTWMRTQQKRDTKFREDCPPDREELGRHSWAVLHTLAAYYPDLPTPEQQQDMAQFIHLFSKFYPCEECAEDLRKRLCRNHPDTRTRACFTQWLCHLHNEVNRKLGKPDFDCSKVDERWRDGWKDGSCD

cells = format: functional
[6] = target: T3, Heat shock factor protein 1 (Mus musculus, UniProt P38532); experiment: HSF1 potentiators in luciferase reporter cells, confirmation, cell-based, NIH3T3, luminescence, dose retest (AID 435004); format: functional;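 note: stress induced by proteasome inhibitor MG132 added 30 min after compound; luciferase reporter driven by HSF1 response element in NIH3T3 cells; actives raise luminescence as potentiators of the MG132 stress response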
T3 sequence (P38532 whole entry): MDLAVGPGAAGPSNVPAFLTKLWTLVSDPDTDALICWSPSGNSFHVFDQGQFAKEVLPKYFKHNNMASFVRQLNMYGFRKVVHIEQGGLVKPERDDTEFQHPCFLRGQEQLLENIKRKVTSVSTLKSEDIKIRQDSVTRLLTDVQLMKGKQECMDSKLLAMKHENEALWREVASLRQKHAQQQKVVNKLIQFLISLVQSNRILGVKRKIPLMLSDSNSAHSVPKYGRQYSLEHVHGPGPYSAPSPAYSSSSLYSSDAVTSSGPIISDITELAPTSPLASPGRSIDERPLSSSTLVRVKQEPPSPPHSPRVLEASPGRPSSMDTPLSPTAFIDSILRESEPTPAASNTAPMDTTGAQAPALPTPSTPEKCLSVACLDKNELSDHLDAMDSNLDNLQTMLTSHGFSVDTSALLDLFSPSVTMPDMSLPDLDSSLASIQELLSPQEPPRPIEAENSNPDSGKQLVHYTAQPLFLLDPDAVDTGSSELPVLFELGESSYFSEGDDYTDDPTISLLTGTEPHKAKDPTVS

[7] = target: T4, Carboxy-terminal domain RNA polymerase II polypeptide A small phosphatase 1 (Homo sapiens, UniProt Q9GZU7); experiment: inhibitors of CTDSP1, concentration-response testing, biochemical assay, absorbance-based, actives from ultra-high-throughput screening (AID 540297); format: functional
T4 sequence (Q9GZU7 whole entry): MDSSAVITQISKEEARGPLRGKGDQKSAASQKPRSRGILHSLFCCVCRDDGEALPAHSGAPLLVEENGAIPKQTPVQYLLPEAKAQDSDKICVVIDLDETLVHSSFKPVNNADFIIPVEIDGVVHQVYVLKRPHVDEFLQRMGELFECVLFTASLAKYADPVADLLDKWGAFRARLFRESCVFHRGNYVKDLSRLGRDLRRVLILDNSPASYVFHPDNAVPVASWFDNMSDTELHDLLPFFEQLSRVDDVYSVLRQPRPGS

[8] = microbe, parasite or virus in culture; format: functional; conditions: Mycobacterium tuberculosis
Cytochrome P450 1A2 = target: T5, Cytochrome P450 1A2 (Homo sapiens, UniProt P05177);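 note: PubChem cytochrome P450 panel assay, CYP1A2 panel member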
T5 sequence (P05177 whole entry): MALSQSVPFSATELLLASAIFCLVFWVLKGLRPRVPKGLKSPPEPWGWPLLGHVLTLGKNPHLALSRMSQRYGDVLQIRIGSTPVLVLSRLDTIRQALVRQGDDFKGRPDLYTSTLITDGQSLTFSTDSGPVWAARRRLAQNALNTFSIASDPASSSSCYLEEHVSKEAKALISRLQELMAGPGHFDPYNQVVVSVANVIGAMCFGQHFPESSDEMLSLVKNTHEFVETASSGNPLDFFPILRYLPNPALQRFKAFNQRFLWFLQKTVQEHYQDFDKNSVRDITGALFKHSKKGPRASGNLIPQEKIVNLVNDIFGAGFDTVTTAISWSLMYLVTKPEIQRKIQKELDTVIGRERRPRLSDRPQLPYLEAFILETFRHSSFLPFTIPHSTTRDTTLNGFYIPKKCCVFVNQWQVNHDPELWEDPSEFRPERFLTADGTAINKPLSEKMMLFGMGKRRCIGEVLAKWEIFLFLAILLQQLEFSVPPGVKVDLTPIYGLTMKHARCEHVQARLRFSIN

[9] = Shn3 3'UTR reporter inhibitors, dose response, cell-based, Clone20 osteoblasts, firefly luciferase, cherry-picked (AID 624132); format: functional;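 note: firefly luciferase luminescence from reporter carrying the Shn3 3'UTR in osteoblasts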
[10] = Luminescence Cell-Based Dose Response HTS to Identify Activators of Luciferase Translation or Activity in H4 […] Cells. [Related pubchem assays: 1829 (Project Summary), 1814 (Primary HTS)]; format: functional
H4 = experiment: Luminescence Cell-Based Dose Response HTS to Identify Activators of 5'UTR Stem-Loop Driven Prion Protein mRNA Translation in H4 Neuroglioblastoma Cells. [Related pubchem assays: 1829 (Project Summary), 1814 (Primary HTS)]; format: functional; conditions: Homo sapiens
[11] = Luminescence Cell-Based Dose Confirmation HTS to Identify Activators of 5'UTR Stem-Loop Driven Alpha-Synuclein mRNA Translation in H4 Neuroglioblastoma Cells. [Related pubchem assays: 1829 (Project Summary), 1814 (Primary HTS)]; format: functional
P388/ADR = experiment: cells; format: functional; conditions: Mus musculus
P388 = experiment: cells; format: functional; conditions: Mus musculus
SN12K1 = experiment: cells; format: functional; conditions: Homo sapiens

Sequence of Glyceraldehyde-3-phosphate dehydrogenase (P04406 whole entry): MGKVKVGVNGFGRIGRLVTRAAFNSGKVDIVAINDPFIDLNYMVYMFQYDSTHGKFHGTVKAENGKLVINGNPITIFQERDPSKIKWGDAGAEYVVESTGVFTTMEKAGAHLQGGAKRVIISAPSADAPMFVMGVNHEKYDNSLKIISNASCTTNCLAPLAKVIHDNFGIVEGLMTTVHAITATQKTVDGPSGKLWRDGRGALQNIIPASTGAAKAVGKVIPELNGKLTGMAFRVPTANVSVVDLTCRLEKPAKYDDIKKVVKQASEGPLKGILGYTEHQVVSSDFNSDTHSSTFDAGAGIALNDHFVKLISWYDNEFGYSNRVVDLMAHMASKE

## O=C1C(Cl)=C(N2CCOCC2)C(=O)N1c1cccc(C(F)(F)F)c1
[1]
  IC50: > 50 µM (inconclusive)
Protein RecA
  EC50: 1.64 µM (active)
[2]
  AC50: 1.16 µM (inconclusive)

## CCOc1ccc(CCNc2ccc3nnc(-c4ccccc4)n3n2)cc1OCC
[3]
  EC50: 26.3 µM (active)
[4]
  EC50: 12.7 µM (active)

## COc1ccc(CCNC(=O)c2cc(-c3cc(C)ccc3O)n[nH]2)cc1OC
[5]
  AC50: 85.6 µM (active)

## CCOC(=O)C1CCCc2c1[nH]c1c(C(N)=O)cccc21 (stereo not drawn)
cells
  IC50: 5.22 µM (active)

## O=C1C(Cl)=C(N2CCN(CCOCCO)CC2)C(=O)N1c1ccc(C(F)(F)F)cc1
[1]
  IC50: > 50 µM (inconclusive)

## Cc1ncc([N+](=O)[O-])n1CCOC(=O)c1cc(Cl)cc(Cl)c1N
[6]
  EC50: > 260 µM (inactive)
[7]
  IC50: 6.77 µM (active)

## Cc1cc(O)n2cc(-c3ccccc3)nc2n1
[5]
  AC50: 13.9 µM (active)

## CC1(C)c2[nH]c3ccccc3c2C[C@@H]2C(=O)N(Cc3ccccc3F)C(=O)N21
[8]
  CC50: > 40 µM (active)

## CC(OC(=O)c1ccc2c(=O)n3c(nc2c1)CCCCC3)C(=O)Nc1ccc(Cl)cn1 (stereo not drawn)
cells
  IC50: 20.3 µM (active)

## O=S(=O)(Nc1ccc2c(c1)OCO2)c1ccc(F)c(F)c1
[5]
  AC50: 5.12 µM (active)

## CCCc1cc(C(=O)N2CCCC(Nc3ccc(C)c(C)c3)C2)n(C)n1 (stereo not drawn)
[5]
  AC50: 3.84 µM (active)

## O=C(NNc1nc2ccccc2s1)c1ccccc1F
Cytochrome P450 1A2
  AC50: 14.1 µM (inconclusive)
[8]
  CC50: > 40 µM (active)
[5]
  AC50: 14.2 µM (active)

## O=C(NNCc1ccc(O)cc1)c1ccccc1Cl
[5]
  AC50: 0.695 µM (active)

## COC(=O)c1ccccc1N=C(S)N(Cc1ccc2c(c1)OCO2)Cc1cc2cc(OC)ccc2nc1O
[9]
  AC50: 10.4 µM (active)

## O=C1/C(=C/c2c[nH]c3ccccc23)CCC/C1=C\c1c[nH]c2ccccc12
[3]
  EC50: 16.8 µM (active)
[4]
  EC50: 14.4 µM (active)

## O=c1cc(N2CCN(c3ccc(F)cc3)CC2)[nH]c(=O)n1C1CCCCC1
[10]
  EC50: 17.3 µM (inconclusive)
H4
  EC50: 26.6 µM (active)
[11]
  EC50: > 120 µM (not active)

## COc1cccc(NCc2cc(=O)oc3cc(-c4ccccc4)c(O)cc23)c1
[10]
  EC50: 15.2 µM (active)
H4
  EC50: 20 µM (active)
[11]
  EC50: 21.8 µM (active)

## O=S1(=O)N=C(N/N=C/C=C/c2ccccc2)c2ccccc21
cells
  IC50: 30.6 µM (active)

## O=C1/C(=C\c2ccncc2)CCc2ccccc21
[8]
  CC50: > 40 µM (active)

## COc1ccc(-c2nc3c(n2O)CCc2c-3no[n+]2[O-])cc1
[10]
  EC50: 22.2 µM (active)
H4
  EC50: 15 µM (active)
[11]
  EC50: > 120 µM (not active)

## Cc1ccc(NC(=O)c2cnn(-c3ccccc3)c2C)c(C)c1
[10]
  EC50: 37.9 µM (active)
H4
  EC50: > 120 µM (not active)
[11]
  EC50: 0.463 µM (active)

## COc1ccc(N2C(=O)C(F)(F)C2c2cccc(F)c2)cc1 (stereo not drawn)
cells
  IC50: 5.74 µM (active)

## O=[N+]([O-])c1c(O)oc2ccccc2/c1=N\c1ccccc1O
cells
  IC50: 7.4 µM (active)

## N#Cc1ccc(-c2ccc(F)cc2)nc1Oc1ccc(Cl)c(Cl)c1
[3]
  EC50: 3.8 µM (active)
[4]
  EC50: 7.18 µM (active)

## CCOC(=O)c1cc(-c2c(Cl)cccc2Cl)no1
cells
  IC50: 23 µM (active)

## O=C1Nc2ccc(S(=O)(=O)NCc3ccco3)c3cccc1c23
[7]
  IC50: 10.8 µM (active)

## C=C(C)CSc1cc(C)c(C#N)c2nc3ccccc3n12
[8]
  CC50: 10.1 µM (active)

## O=C(NNC(=O)c1ccc(-c2ccccc2)cc1)c1ccccc1
[7]
  IC50: 11.2 µM (active)

## CC1CCCC(C)N1c1nnc(N)s1 (stereo not drawn)
[5]
  AC50: 2.31 µM (active)

## CN1CCN(C2=C(Cl)C(=O)N(c3ccc(C(F)(F)F)cc3)C2=O)CC1
[1]
  IC50: > 50 µM (inconclusive)

## O=C(N/N=C/c1ccc(Cl)cc1)c1cc2c(s1)-c1ccccc1CC2
[7]
  IC50: 20 µM (active)
[3]
  EC50: 10.5 µM (active)
[4]
  EC50: 9.47 µM (active)

## CCOc1ccc(C(CC(=O)O)CC(=O)O)cc1
[1]
  IC50: > 100 µM (not active)

## C=C1C(=O)[C@@]23CC[C@H]4[C@@](C)(CCC[C@@]4(C)C(=O)OC)[C@@H]2CC[C@]1(O)C3
P388/ADR
  GI50: 0.0483 µM (active)
P388
  GI50: 0.153 µM (active)
SN12K1
  GI50: 1.45 µM (inactive)
